According to ChEMBL document CHEMBL1201862, “PubChem BioAssay data set” (2004):
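These data come from cells grown in 96-well plates and exposed to compound for 48 hours at five concentrations. GI50: concentration for 50% inhibition of growth.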 Calls of active or inactive are those of the source. No stated cut-off is given here; in the data, active = GI50 up to about 1.1 µM and inactive = higher.

How the values were obtained:
Assay in all cases: DTP human tumour cell line panel, 48 h
[1] = tested on: HOP-92
[2] = tested on: SF-539
[3] = tested on: SN12C
[4] = tested on: HCT-116
[5] = tested on: TK-10
[6] = tested on: SK-MEL-2
[7] = tested on: SNB-19
[8] = tested on: COLO 205
[9] = tested on: A498
[10] = tested on: 786-0
[11] = tested on: IGROV-1
[12] = tested on: M14
[13] = tested on: LOX IMVI
[14] = tested on: UACC-257
[15] = tested on: NCI-H522
[16] = tested on: SW-620
[17] = tested on: RXF 393
[18] = tested on: MDA-MB-435
[19] = tested on: CCRF-CEM

Row | SMILES | GI50 [1] | GI50 [2] | GI50 [3] | GI50 [4] | GI50 [5] | GI50 [6] | GI50 [7] | GI50 [8] | GI50 [9] | GI50 [10] | GI50 [11] | GI50 [12] | GI50 [13] | GI50 [14] | GI50 [15] | GI50 [16] | GI50 [17] | GI50 [18] | GI50 [19]
1 | O=C(CC1(O)C(=O)Nc2ccccc21)c1ccco1 (stereo unspecified) | > 100 µM (inactive) | > 100 µM (inactive) | > 100 µM (inactive) | > 100 µM (inactive) | > 100 µM (inactive) | > 100 µM (inactive) | > 100 µM (inactive) | > 100 µM (inactive) | > 100 µM (inactive) | > 100 µM (inactive) | > 100 µM (inactive) | > 100 µM (inactive) | > 100 µM (inactive) | > 100 µM (inactive) | > 100 µM (inactive) | > 100 µM (inactive) | > 100 µM (inactive) | – | –
2 | O=C(NC(CS)C(=O)O)c1cccc2c(=O)c3ccccc3[nH]c12 (stereo unspecified) | > 100 µM (inactive) | – | > 100 µM (inactive) | > 100 µM (inactive) | > 100 µM (inactive) | > 100 µM (inactive) | > 100 µM (inactive) | > 100 µM (inactive) | > 100 µM (inactive) | > 100 µM (inactive) | > 100 µM (inactive) | > 100 µM (inactive) | > 100 µM (inactive) | – | 47 µM (inactive) | > 100 µM (inactive) | – | > 100 µM (inactive) | –
3 | CC(C)(O)CCc1ccc(O)c2c(=O)c3c(O)c4c(cc3oc12)O[C@H]1OC=C[C@@]41O [AUSTOCYSTIN D] | 0.251 µM (active) | 0.514 µM (active) | 8.69 µM (inactive) | 0.0199 µM (active) | < 0.01 µM (active) | < 0.01 µM (active) | 0.148 µM (active) | 0.0109 µM (active) | < 0.01 µM (active) | 7.06 µM (inactive) | < 0.01 µM (active) | 0.411 µM (active) | 9.31 µM (inactive) | 0.0184 µM (active) | 5.27 µM (inactive) | < 0.01 µM (active) | 0.148 µM (active) | < 0.01 µM (active) | 9.79 µM (inactive)
4 | COC(=O)[C@@]12CCCC(=O)[C@@H]1[C@H]1CCC[C@H]12 | > 100 µM (inactive) | > 100 µM (inactive) | > 100 µM (inactive) | > 100 µM (inactive) | > 100 µM (inactive) | > 100 µM (inactive) | > 100 µM (inactive) | > 100 µM (inactive) | – | > 100 µM (inactive) | > 100 µM (inactive) | > 100 µM (inactive) | > 100 µM (inactive) | > 100 µM (inactive) | > 100 µM (inactive) | > 100 µM (inactive) | > 100 µM (inactive) | > 100 µM (inactive) | > 100 µM (inactive)
5 | c1ccc2c(CNCCCN3CCN(CCCNCc4cccc5ccccc45)CC3)cccc2c1 | 1.74 µM (inactive) | 1.61 µM (inactive) | 3.68 µM (inactive) | 1.51 µM (inactive) | 1.5 µM (inactive) | 1.65 µM (inactive) | – | 2.06 µM (inactive) | 10.9 µM (inactive) | 1.91 µM (inactive) | 3.07 µM (inactive) | 1.18 µM (inactive) | 1.35 µM (inactive) | 1.92 µM (inactive) | 1.59 µM (inactive) | 1.77 µM (inactive) | 1.08 µM (active) | – | 1.24 µM (inactive)
6 | COc1ccc(/C(Cl)=C/c2ccc(Cl)c(Cl)c2)cc1 | 30.1 µM (inactive) | 43.7 µM (inactive) | 29.4 µM (inactive) | 22.7 µM (inactive) | – | – | 63.4 µM (inactive) | 22.1 µM (inactive) | 24.9 µM (inactive) | 32.5 µM (inactive) | 38.1 µM (inactive) | 33.2 µM (inactive) | – | 24.3 µM (inactive) | 16.3 µM (inactive) | 43.2 µM (inactive) | 15.2 µM (inactive) | – | 21.9 µM (inactive)
7 | Nc1nc(SCc2ccccc2Cl)c2ncn(C3OC(CO)C(O)C3O)c2n1 (stereo unspecified) | 98.2 µM (inactive) | 89.1 µM (inactive) | > 100 µM (inactive) | 42.4 µM (inactive) | > 100 µM (inactive) | > 100 µM (inactive) | 38.8 µM (inactive) | > 100 µM (inactive) | 87.3 µM (inactive) | > 100 µM (inactive) | > 100 µM (inactive) | > 100 µM (inactive) | 68.9 µM (inactive) | – | 30.1 µM (inactive) | > 100 µM (inactive) | 28.6 µM (inactive) | – | > 100 µM (inactive)
8 | CSc1cnc2ccccc2c1Sc1c[nH]c2ccccc2c1=O | 8.39 µM (inactive) | 11.5 µM (inactive) | 11.8 µM (inactive) | 9.48 µM (inactive) | 36 µM (inactive) | 10.4 µM (inactive) | 20 µM (inactive) | 6.24 µM (inactive) | 12.4 µM (inactive) | 15.3 µM (inactive) | 14.4 µM (inactive) | 6.76 µM (inactive) | 11.5 µM (inactive) | 11.3 µM (inactive) | 1.93 µM (inactive) | 3.56 µM (inactive) | 13.7 µM (inactive) | – | 4.52 µM (inactive)
9 | O=S(=O)(O)CS(=O)(=O)OCCCl | > 100 µM (inactive) | > 100 µM (inactive) | > 100 µM (inactive) | > 100 µM (inactive) | > 100 µM (inactive) | – | > 100 µM (inactive) | > 100 µM (inactive) | > 100 µM (inactive) | > 100 µM (inactive) | > 100 µM (inactive) | > 100 µM (inactive) | > 100 µM (inactive) | > 100 µM (inactive) | > 100 µM (inactive) | > 100 µM (inactive) | > 100 µM (inactive) | – | –
10 | CC(C)CCn1c(=O)c2c(=O)[nH][nH]c2c2ccccc21 | > 100 µM (inactive) | > 100 µM (inactive) | > 100 µM (inactive) | > 100 µM (inactive) | > 100 µM (inactive) | – | > 100 µM (inactive) | > 100 µM (inactive) | > 100 µM (inactive) | > 100 µM (inactive) | > 100 µM (inactive) | – | > 100 µM (inactive) | > 100 µM (inactive) | > 100 µM (inactive) | > 100 µM (inactive) | – | > 100 µM (inactive) | > 100 µM (inactive)
11 | Cc1ccc(C(=O)O/N=C2/CCCCC2CN(C)C)cc1 (stereo unspecified) | > 100 µM (inactive) | > 100 µM (inactive) | > 100 µM (inactive) | > 100 µM (inactive) | > 100 µM (inactive) | > 100 µM (inactive) | – | > 100 µM (inactive) | > 100 µM (inactive) | > 100 µM (inactive) | > 100 µM (inactive) | > 100 µM (inactive) | > 100 µM (inactive) | > 100 µM (inactive) | > 100 µM (inactive) | – | > 100 µM (inactive) | – | > 100 µM (inactive)
12 | CC1(SCC(N)C(=O)O)CC(=O)NC1=O (stereo unspecified) | > 100 µM (inactive) | > 100 µM (inactive) | > 100 µM (inactive) | > 100 µM (inactive) | > 100 µM (inactive) | > 100 µM (inactive) | > 100 µM (inactive) | > 100 µM (inactive) | 0.42 µM (active) | > 100 µM (inactive) | > 100 µM (inactive) | – | > 100 µM (inactive) | > 100 µM (inactive) | > 100 µM (inactive) | > 100 µM (inactive) | > 100 µM (inactive) | – | > 100 µM (inactive)
